According to patent US8932617B2, “Methods for treating or preventing restenosis and other vascular proliferative disorders” (priority 2004, dated 2015):
Where “and” joins values, the source holds several entries; their conditions need not be identical. Equal values may be shown once. Entries after “also recorded” stand apart in the source; their conditions may differ. Read-outs that look alike come from different tables or passages of the source. Marks after values point to notes of the source that are not given here.

Key:
[1] = test system: rat carotid artery, balloon mediated injury (restenosis); assay: Rat balloon carotid injury (Example 2), morphometric analysis at 2 and 6 weeks; assay type: in vivo; details: for decrease in neointimal area / decrease in intima/media ratio: 200 mg kg^-1 d^-1 i.p. for 7 days
Description: Male Wistar rats, weighing 400-450 g (Harlan) were fed standard pellet feed and given water ad libitum. The experimental protocol was designed in accordance with Institutional ILACUC standards. Animals were anesthetized with Isoflurane (1.5-2%) in air. The right carotid artery was exposed and a 2F Fogarty balloon embolectomy catheter (Baxter) was inserted via an external carotid arteriotomy incision. The catheter was advanced to the common carotid artery, inflated to a pressure of 2 atm and rotated in a forward and retrograde direction. The catheter was then deflated and the process repeated three times. Treatment cohorts were divided into 5 groups (n=6-8/group): Control (sham operated), Didox (200 mg-kg^−1 d^−1), Imidate (200 mg kg^−1)HU (200 mg kg^−1 d^−1) and vehicle (saline). Drugs were administered daily by i.p. injection for a period of 7 days after injury. At 2 weeks post-injury, rats were euthanized by pentobarbital overdose and perfused with 10% buffered formalin Carotid arteries were removed and placed in the same fixative. Tissues were then embedded in paraffin, and 4 to 5 sections (4 μm) were cut at multiple levels. These sections were then stained with hematoxylin-eosin or elastic-van Gieson stain. Sections were examined microscopically and the cross-sectional areas of the lumen, neointima (from the internal elastic lamina to the lumen), and media were determined using digital microscopy with Spot Advanced software. The intima-to-media (I/M) ratio was then calculated from the determined mean. The data represent the mean±SD.
The effects of Didox, Imidate, and Hydroxyurea (HU) on the vascular remodeling process following arterial injury were determined using a rat model of balloon mediated carotid injury. Each compound (200 mg kg^−1 d^−1) was delivered via i.p. injection for a period of 7 days post injury. These dosages are based on previously published reports and represent ½ the maximum tolerated dose of Hydroyurea in rats (Gupta and Yaffe, (1982) Pediatr Pharmacol (New York) 2:85-91; Vaughan et al., (1989) Cancer Chemother Pharmacol 23:26-30).
At 14 days post injury the animals were sacrificed and morphometric analysis was carried out in order to asses the histopathological changes in the vessel wall (FIG. 1). […] HU afforded similar vascular protective effects to those observed with Didox and Imidate, resulting in a 55% decrease in neointimal area and a 63% decrease in intima/media ratio (FIG. 2). […] However, because the remodeling process occurs over a prolonged period of time, additional studies were performed in order to determine whether the vascular protective effects observed would be mitigated over time.
To further investigate long-term efficacy of the one week dosing regimen, the duration of the study period was increased to 6 weeks. […] The beneficial effect of ribonucleotide reductase inhibition persisted over the long term. Each compound (200 mg kg^−1 d^−1) was given i.p. for a period of 7 days followed by a 5 week recovery period. […] Similarly, Imidate offered a 61% reduction in neointimal area and a 62% reduction in intima/media ratio (FIG. 3).

rat vascular SMC = assay: Smooth muscle cell migration, wound scrape assay with PDGF; assay type: cell-based; details: for SMC migratory rate: 100 μM, PDGF 10 ng/mL, 24 hour period, control 15.8
Description: A wound scrape assay was performed using rat vascular SMC. The cells were grown to confluence on 60 mm dishes. The cells were then made quiescent by incubating them in media containing 0.1% serum for 24 hrs followed by treatment with Didox, Imidate (0-100 μM), or HU (0-1000 μM) in media containing 0.1% serum and platelet derived growth factor (PDGF) at concentration of 10 ng/mL. Linear wounds were made by scraping each plate with the tip of a 20 μL pipette. The ability of cells to migrate across the wound area was measured using digital microscopy. SPOT advanced software (Diagnostic Instruments, Inc., Sterling Heights, Mich.) was used to measure the wound immediately, 2, 4, 12 and 24 hrs following injury. The data are presented as rate of migration and represent the mean±SD.
SMC migration is also a component of neointimal proliferation. Therefore, additional studies were performed in order to determine the effects of these compounds on SMC migration. Using a wound scrape assay, SMC migration studies were carried out in the presence of Didox, Imidate, and HU. VSMC's were cultured to confluence on 60 mm dishes. The cells were made quiescent by incubating in media containing 0.1% serum. Following 24 hours of serum deprivation, Didox, Imidate, and HU were added to the wells (10-1000 μM) in the presence of PDGF (10 ng/mL) and a linear wound was made across the plate. SMC migration across the wound was monitored by digital microscopy over a 24 hour period. […] In contrast, HU (100 μM) had little effect on SMC migration, resulting in a migratory rate of […] (FIG. 4). […] This would be expected to contribute to the vascular protective effects afforded by these drugs.

[2] = test system: rat carotid artery, balloon mediated injury (restenosis); assay: Rat model of balloon mediated carotid artery injury (Example 1), morphometric analysis; assay type: in vivo; details: two weeks post injury; intraperitoneal injection; vs untreated injured artery
Description: To determine the ability of the ribonucleotide reductase inhibitors to affect restenosis, a rat model of balloon mediated carotid artery injury was utilized. Percutaneous transluminal carotid angioplasty (PTCA) was performed using a 2F Fogarty Embolectomy Catheter, which was inserted through the right, external carotid artery and inflated (2 atm) and deflated four times inside the right common carotid artery and rotated to cause endothelial injury. Immediately following the carotid injury, the rats received ribonucleotide reductase inhibitors, Didox (N,3,4-trihydroxybenzamide) Imidate (ethyl-3,4,5-trihydroxybenzenecarboximidate.HCl), or Hydroxyurea via intraperitoneal injection. The degree of restenosis was assessed using morphometric analysis at two weeks post injury.

SMC dATP pools = assay: Intracellular dNTP quantitation (dATP pools) by HPLC; assay type: cell-based, rat; details: 24 hours; for dATP levels: control 303; for maximal reduction in dATP content: Didox 0-200 μM, Imidate 0-200 μM, HU 0-1000 μM
Description: SMC were plated in T150 flasks and treated with Didox (0-200 μM), Imidate (0-200 μM) or HU (0-1000 μM) and incubated for 24 hours. Following the 24 hour incubation period, the cells were trypsinized and collected in 50 mL centrifuge tubes along with the incubation media. All the extraction steps were performed on ice. Immediately before processing, cells were counted and viability determined using the trypan blue exclusion method. The cells were then centrifuged 5 minutes at 800×g. The cell pellet was then deproteinized with the same volume of 6% TCA, vortexed for 20 s and incubated on ice for 10 minutes. The acid cell extracts were centrifuged 10 min at 2000×g. The supernatants were then supplemented with an equal volume of distilled water, vortexed for 60 s and neutralized by the addition of 5M K2CO3 prior to HPLC analysis. dNTP detection was carried out using an ESA (Chelmsford, Mass.) HPLC chromatographic system with UV-Vis detection. Chromatographic separations were performed using a TosoHaas C18 reverse phase column (ODS 80Tm 250×4.6 mm, 5 μm pore). The mobile phase was delivered at a rate of 1.0 mL/min during the analysis using the following stepwise gradient elution program: A-B (80-20) at 0 min; (40-60) at 30 min; (40-60) at 40 min and (80-20) at 45 min. Buffer A contained 10 mM tetrabutylammonium sulfate, 10 mM KH2PO4 and 0.25% MeOH, and adjusted to pH 6.9. Buffer B consisted of 5.6 mM tetrabutylammonium sulfate, 50 mM KH2PO4 and 30% MeOH, and neutralized to pH 7.0. The injection volume for analysis was 50 μL. Detection was carried out at 254 nm.
In order to further validate that the observed anti-proliferative properties afforded by these compounds was through inhibition of ribonucleotide reductase activity, the effects of these compounds on intracellular dATP pools were measured.

[3] = test system: Rat vascular smooth muscle cells; assay: SMC proliferation, cell count by flow cytometry; assay type: cell-based; details: 24 hours incubation, cells counted by flow cytometry, read-out: IC50 on inhibition of smooth muscle cell growth
Description: SMC were plated on 6 well dishes at a density of 2×10^5 cells per well. Cells were then treated with Didox (0-200 μM), Imidate (0-200 μM) or HU (0-1000 μM) and incubated for 24 hours. Following the 24 hour incubation period, the cells were trypsinized and collected in 15 mL centrifuge tubes. The cells were then centrifuged 5 minutes at 800×g. The supernatant was discarded and the pellet was resuspended in 5 ml PBS. The cells were centrifuged 6 minutes at 200×g. The supernatant was removed and the pellet was then thoroughly resuspended in 0.5 ml PBS. The cell suspension was transferred into tubes containing 70% ethanol, keeping the cells in fixative for greater than about 2 hours. The ethanol suspended cells were centrifuged 5 minutes at 200×g, and the ethanol was decanted. The cell pellet was resuspended in 5 ml PBS and after one minute was centrifuged 5 min at 200×g. The top layer of liquid was again removed and the cell pellet was resuspended in 1 ml PI/Triton X-100 staining solution with RNAse A. This staining solution was then incubated at room temperature for 30 minutes. Flow cytometry was then performed using a FACS Calibur (Becton Dickenson). The data are presented as the mean.
Didox, Imidate, and to a much lesser degree, HU, are known to be ribonucleotide reductase inhibitors (Elford, (1968) Biochem Biophys Res Commun 33:129-135; Elford et al., (1970) J Biol Chem 245:5228-5233; Elford et al., (1979) Cancer Res 39:844-851). ribonucleotide reductase catalyzes the reductive conversion of ribonucleotides to deoxynucleotides. This reductive reaction is a prime target for impeding cellular proliferation, and therefore amenable to inhibiting VSMC replication, because it is a rate limiting step in the biochemical pathway leading to DNA synthesis (Elford et al., (1970) J Biol Chem 245:5228-5233; Elford et al., (1979) Cancer Res 39:844-851; Takeda and Weber, (1981) Life Sci 28:1007-1014; Natsumeda et al., (1985) Cancer Res 45:2556-2559). […] Therefore, the IC50 of each compound on inhibition of smooth muscle cell growth was determined. […]

[4] = 6 weeks post injury, 5 week recovery

SMILES	decrease in neointimal area [1, 4] [%]	decrease in intima/media ratio ([1]; 14 days post injury)	decrease in neointimal area ([1]; 14 days post injury) [%]	change in medial area ([1]; one week of systemic administration after balloon injury)	SMC migratory rate (rat vascular SMC) [µm/h]	Lumen, % change as compared to injured vessel (increase in lumen area) [2]	Neointima, % change as compared to injured vessel (decrease in neointimal formation) [2]	Neointima/Media, % change as compared to injured vessel (reduction in intima/media ratio) [2]	Wall Thickness, % change as compared to injured vessel (reduction) [2]	dATP levels (SMC dATP pools; 5 μM) [Pmoles/10^7 cells]	dATP levels (SMC dATP pools; 10 μM) [Pmoles/10^7 cells]	dATP levels (SMC dATP pools; 50 μM)	dATP levels (SMC dATP pools; 100 μM)	dATP levels (SMC dATP pools; 200 μM)	maximal reduction in dATP content (SMC dATP pools) [%]	IC50 ([3]; Rattus norvegicus) [µM]	effect on SMC migration (rat vascular SMC; HU concentrations up to 1 mM, listed as HU)	dATP levels (SMC dATP pools; 500 μM) [Pmoles/10^7 cells]	dATP levels (SMC dATP pools; 1000 μM) [Pmoles/10^7 cells]	IC50 [3] [µM]
CCOC(=N)c1cc(O)c(O)c(O)c1.Cl [Imidate, ethyl-3,4,5-trihydroxybenzenecarboximidate-HCl]	61	55% and 60%	57	small but statistically significant decrease in medial area	0.9	↑19 ± 5%	↓ 65 ± 7%	↓ 69 ± 8%	↓ 41 ± 7%	293	311	210 Pmoles/10^7 cells	184* Pmoles/10^7 cells	173* Pmoles/10^7 cells	42	82				
NC(=O)NO [Hydroxyurea, reference compound]	71	63%	55		15.1	↑22 ± 5%	↓ 91 ± 6%	↓ 93 ± 7%	↓ 54 ± 9%	320			266 Pmoles/10^7 cells		69	266	No further inhibition; also recorded: no effect on SMC migration	93	92	
O=C(NO)c1ccc(O)c(O)c1 [Didox, N-3,4-trihydroxybenzamide]	64	61% and 60%	62		1.7					297	260	203* Pmoles/10^7 cells	140* Pmoles/10^7 cells	126* Pmoles/10^7 cells	58					67
